The compounds below were run against T1, PLK1 (Homo sapiens, UniProt P53350) (assay: PLK1 protein degradation by western blotting in HeLa cells). Settings: thymidine block and release, compound 100 nM, 6 hours, PLK1/GAPDH ratio, read-out: PLK1 protein degradability (Dmax).
T1 construct: endogenous in cells; host or cells: HeLa
T1 sequence (P53350 whole entry): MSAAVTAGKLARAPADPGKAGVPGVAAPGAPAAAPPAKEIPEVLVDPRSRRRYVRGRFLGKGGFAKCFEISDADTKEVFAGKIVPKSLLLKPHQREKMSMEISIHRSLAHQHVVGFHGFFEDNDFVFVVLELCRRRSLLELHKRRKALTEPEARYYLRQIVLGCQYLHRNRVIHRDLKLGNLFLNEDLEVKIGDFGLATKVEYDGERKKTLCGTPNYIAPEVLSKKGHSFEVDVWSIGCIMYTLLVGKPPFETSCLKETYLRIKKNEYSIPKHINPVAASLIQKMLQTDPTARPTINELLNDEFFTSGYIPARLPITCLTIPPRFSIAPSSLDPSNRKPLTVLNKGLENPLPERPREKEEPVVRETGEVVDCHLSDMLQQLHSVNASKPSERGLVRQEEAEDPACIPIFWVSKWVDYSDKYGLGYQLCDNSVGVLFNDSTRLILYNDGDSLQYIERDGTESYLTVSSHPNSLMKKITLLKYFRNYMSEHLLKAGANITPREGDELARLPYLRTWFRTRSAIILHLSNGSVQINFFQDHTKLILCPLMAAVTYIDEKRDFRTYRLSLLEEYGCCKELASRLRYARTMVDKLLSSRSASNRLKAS
Assay type: cell-based
Method: The HeLa cell line was purchased from Korea Cell Line Bank (KCLB), Seoul, Korea. The passage in cell culture was maintained at P115 to P125.
2×10^5 cells were seeded for each well of a 12-well plate (SPL), and the cells were cultured in the culture medium in a total volume of 2 ml.
The compounds of Examples were completely dissolved in DMSO and used in the experiment, and thymidine was completely dissolved in DW and used in the experiment. For thymidine block, the products were treated with 2 mM of thymidine (Sigma-Aldrich Cat. No. T9250-5G) and then incubated for 24 hours.
For release and chemical treatment, the medium was suctioned and washed 3 times with 1×PBS. Complete media was added, followed by incubation for 4 hours in a CO2 incubator. Each compound was treated according to the concentration of 100 nM and then incubated for 6 hours again.
For SDS-PAGE and Western blotting, 1×RIPA lysis buffer (Rockland, Cat. No. MB-030-0050; Lot no. 39751), 100× Protease Inhibitor Cocktail (Quartett, Cat. No. PPI1015; Lot no. PC050038424), Pierce ? BCA protein assay kit (ThermoScientific, Cat. No. 23225; Lot no. UC276876), albumin standard (ThermoScientific, Cat. No. 23209; Lot no. UB269561), 4-15% Mini-PROTEAN TGX stain-free gel (Bio-rad, Cat. No. 4568085; Lot no. L007041B), 10× Tris/Glycine/SDS buffer (Bio-rad, Cat. No. 1610732; Lot no. 10000044375B); 10×TBS (Bio-rad, Cat. No. 1706435; Lot no. 1000045140B), 10% Tween 20 (Cat. No. 1610781; Lot no. L004152B), Color protein standard broad range (NEB, Cat. No. P7719S; Lot no. 10040349), 4× Laemmli sample buffer (Bio-rad, Cat. No. 1610747; Lot no. L004133B), β-mercaptoethanol (Sigma-Aldrich, Cat. No. M3148; Lot no. 60-24-2), SuperBlock ? T20 (TBS) blocking buffer (ThermoScientific, Cat. No. 37536; Lot no. UC282578), 1M sodium azide solution (Sigma-Aldrich, Cat. No. 08591-1 mL-F; Lot no. BCBV4989), α-Rabbit pAb to Ms IgG (abcam, Cat. No. ab97046; Lot no. GR3252115-1), α-Goat pAb to Rb IgG (CST, Cat. No. 7074S; Lot no. 28), α-GAPDH (abeam, Cat. No. ab8245; Lot no. GR3275542-2), α-Plk1 (CST, Cat. No. 208G4), α-BRD4 (CST, Cat. No. 13440S), ECL ? Prime western blotting reagents (GE Healthcare, Cat. No. RPN2232; Lot no. 17001655), Ponceau S solution (Sigma-Aldrich, Cat. No. P7170; Lot no. SLBV4112), Difco ? […]
Then, a standard curve was obtained using the BCA assay, and the protein mass in the lysate was quantified by substituting the curve equation. The mixture was incubated at 37° C. for 30 minutes using 20 μL of standard or sample solution, and 200 μL of BCA or Bradford solution, and measured at 562 nm absorbance. Samples were prepared by adding 4× sample buffer so that the quantity of protein added to each well was 15 μg. […]
Work on COc1c(Nc2ncc3c(n2)-c2c(c(C(N)=O)nn2C)CC3)cc(N2CCN(C)CC2)cc1C(=O)NCCOCCOCCNc1cccc2c1C(=O)N(C1CCC(=O)NC1=O)C2=O (stereo not shown) [Compound 2, 8-((3-((2-(2-(2-((2-(2,6-dioxopiperidin-3-yl)-1,3-dioxoisoindolin-4-yl)amino)ethoxy)ethoxy)ethyl)carbamoyl)-2-methoxy-5-(4-methylpiperazin-1-yl)phenyl)amino)-1-methyl-4,5-dihydro-1H-pyrazolo[4,3-h]quinazoline-3-carboxamide] yielded a Dmax at 0.1 µM of no less than 60%. COc1c(Nc2ncc3c(n2)-c2c(c(C(N)=O)nn2C)CC3)cc(N2CCN(C)CC2)cc1C(=O)NCCOCCOCCOCCNc1cccc2c1C(=O)N(C1CCC(=O)NC1=O)C2=O (stereo not shown) [Compound 3, 8-((3-((2-(2-(2-(2-((2-(2,6-dioxopiperidin-3-yl)-1,3-dioxoisoindolin-4-yl)amino)ethoxy)ethoxy)ethoxy)ethyl)carbamoyl)-2-methoxy-5-(4-methylpiperazin-1-yl)phenyl)amino)-1-methyl-4,5-dihydro-1H-pyrazolo[4,3-h]quinazoline-3-carboxamide] was tested, and the Dmax at 0.1 µM was no less than 60%. For Cn1nc(C(N)=O)c2c1-c1nc(Nc3cc(N4CCN(CCOCCOCCOCCOCCNc5cccc6c5C(=O)N(C5CCC(=O)NC5=O)C6=O)CC4)ccc3OC(F)(F)F)ncc1CC2 (stereo not shown) [Compound 7, 8-((5-(4-(14-((2-(2,6-dioxopiperidin-3-yl)-1,3-dioxoisoindolin-4-yl)amino)-3,6,9,12-tetraoxatetradecyl)piperazin-1-yl)-2-(trifluoromethoxy)phenyl)amino)-1-methyl-4,5-dihydro-1H-pyrazolo[4,3-h]quinazoline-3-carboxamide], the Dmax at 0.1 µM was no less than 60%. COc1c(Nc2ncc3c(n2)-c2c(c(C(N)=O)nn2C)CC3)cc(N2CCN(C)CC2)cc1C(=O)NCCOCCOCC(=O)N[C@H](C(=O)N1C[C@H](O)C[C@H]1C(=O)NCc1ccc(-c2scnc2C)cc1)C(C)(C)C [Compound 9, 8-((3-((2-(2-(2-(((S)-1-((2S,4R)-4-hydroxy-2-((4-(4-methylthiazol-5-yl)benzyl)carbamoyl)pyrrolidin-1-yl)-3,3-dimethyl-1-oxobutan-2-yl)amino)-2-oxoethoxy)ethoxy)ethyl)carbamoyl)-2-methoxy-5-(4-methylpiperazin-1-yl)phenyl)amino)-1-methyl-4,5-dihydro-1H-pyrazolo[4,3-h]quinazoline-3-carboxamide] gave a Dmax at 0.1 µM of no less than 60%.

— patent US20230158158A1, “PYRAZOLO QUINAZOLINE DERIVATIVE COMPOUNDS INDUCING SELECTIVE DEGRADATION OF PLK1” (UPPTHERA, priority 2020, published 2023)
